# Measured values taken from ChEMBL document CHEMBL1134119, “Total synthesis of human chymase inhibitor methyllinderone and structure--activity relationships of its derivatives” (Bioorg Med Chem Lett, 2001).
# How the values were obtained:
# [1] = biological target: T1, Chymase (Homo sapiens, UniProt P23946); experiment: Compound was evaluated for its inhibitory activity against human Serine protease chymase
# T1 sequence (P23946 whole entry): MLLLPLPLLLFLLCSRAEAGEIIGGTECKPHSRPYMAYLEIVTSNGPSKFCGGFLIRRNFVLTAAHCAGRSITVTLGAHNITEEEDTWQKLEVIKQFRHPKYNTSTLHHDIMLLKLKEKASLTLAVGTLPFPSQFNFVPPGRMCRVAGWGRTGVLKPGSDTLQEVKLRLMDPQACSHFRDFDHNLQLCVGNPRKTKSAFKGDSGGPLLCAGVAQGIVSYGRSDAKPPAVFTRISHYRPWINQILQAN
# [2] = biological target: T1, Chymase; experiment: Compound was evaluated for its inhibitory activity against human chymase
IC50 [1] [µM],IC50 [2] [µM],Structure (SMILES)
40,,COC(CCc1ccccc1)=C1C(=O)C=CC1=O
30,,COC(/C=C/c1ccccc1)=C1C(=O)C(OC)=C(OC)C1=O
,> 1000,COC(C)=C1C(=O)C=CC1=O
